The record followed here is ChEMBL document CHEMBL1130807, “The synthesis of symmetrical and unsymmetrical P1/P1' cyclic ureas as HIV protease inhibitors” (Bioorg Med Chem Lett, 1998).

Data set [1] concerns the target Human immunodeficiency virus type 1 protease (Human immunodeficiency virus 1, UniProt Q72874). Kind of data set: Inhibition of human immunodeficiency virus (HIV) protease isolated enzyme assay.
Data set [2] can be described thus: Antiviral activity was evaluated by whole cell based assay. The format is functional.
Data set [3] in a line: Solubility in 0.1 N HCl. The data set is classed as physicochemical. The conditions noted are these: read-out: S.
Data set [4] relates to Human immunodeficiency virus 1. Kind of data set: Compound was evaluated for potency against Double mutant HIV I84V/V82F strains. The format is functional.
In data set [5] the test system is Human immunodeficiency virus 1. Kind of data set: Compound was evaluated for potency against HIV single mutant I84V strain. The data set is classed as functional.
Data set [6] concerns Human immunodeficiency virus 1. Kind of data set: Compound was evaluated for potency against […] HIV WT strain. The data set is classed as functional.

Molecules are shown by their SMILES. Values after ≈ are worked out from the molar mass of the structure shown.

As a reminder, the Ki is a measure of affinity in units of concentration, obtained from inhibition or displacement. Low values mean a stronger hold on the target, high ones a looser hold on the target. For orientation: IC90 means the concentration needed for an effect of 90%. A lower IC90 goes with an effect from little substance. Compound `CC[C@@H]1[C@H](O)[C@@H](O)[C@@H](CC)N(Cc2cccc(C(=O)Nc3nc4ccccc4[nH]3)c2)C(=O)N1Cc1cccc(C(=O)Nc2nc3ccccc3[nH]2)c1` gave a Ki in data set [1] of 4.5 nM. This compound also displayed an IC90 in data set [2] of 570 nM.

`O=C(Nc1nc2ccccc2[nH]1)c1cccc(CN2C(=O)N(Cc3cccc(C(=O)Nc4nc5ccccc5[nH]4)c3)[C@H](C3CCCCC3)[C@H](O)[C@@H](O)[C@H]2C2CCCCC2)c1`: the affinity in data set [1], expressed as Ki, was 0.29 nM. In addition, in data set [2], it took 14 nM to reach the 90% level (IC90).

In the case of `CC(C)C[C@@H]1[C@H](O)[C@@H](O)[C@@H](Cc2ccccc2)N(Cc2cccc(C(=O)Nc3nc4ccccc4[nH]3)c2)C(=O)N1Cc1cccc(C(=O)Nc2nc3ccccc3[nH]2)c1`, the solubility in data set [3] amounted to 160 µg/mL (≈ 202 µM). Also, the concentration for an effect of 90% (IC90) in data set [4] stood at 82 nM; in data set [5], 9 nM; in data set [6], 10 nM; in data set [2] it was 10 nM. Also, in data set [1], the Ki came to 0.038 nM.

For `CN(C)c1ccc(C[C@@H]2[C@H](O)[C@@H](O)[C@@H](Cc3ccc(N(C)C)cc3)N(Cc3cccc(C(=O)Nc4nc5ccccc5[nH]4)c3)C(=O)N2Cc2cccc(C(=O)Nc3nc4ccccc4[nH]3)c2)cc1`, the solubility in data set [3] is 13.2 µg/mL (≈ 14.5 µM). Further, the IC90 in data set [4] turned out to be 22 nM; in data set [5] it was 8 nM; in data set [6], 8 nM; in data set [2], 8 nM. Moreover, in data set [1], affinity was put at a Ki of 0.038 nM.

For `CCCCCC[C@@H]1[C@H](O)[C@@H](O)[C@@H](Cc2ccccc2)N(Cc2cccc(C(=O)Nc3nc4ccccc4[nH]3)c2)C(=O)N1Cc1cccc(C(=O)Nc2nc3ccccc3[nH]2)c1`, in data set [3], the solubility stood at 118 µg/mL (≈ 144 µM). Further, the IC90 turned out to be 24 nM in data set [4], 24 nM in data set [5], 9 nM in data set [6] and 9 nM in data set [2]. In data set [1], this compound gave a Ki of 0.046 nM.

In the case of `Nc1ccc(C[C@@H]2[C@H](O)[C@@H](O)[C@@H](Cc3ccc(N)cc3)N(Cc3cccc(C(=O)Nc4nc5ccccc5[nH]4)c3)C(=O)N2Cc2cccc(C(=O)Nc3nc4ccccc4[nH]3)c2)cc1`, in data set [3], the solubility came out at 8.3 µg/mL (≈ 9.71 µM). Also, the IC90 in data set [4] worked out at 76 nM; in data set [5], 23 nM; in data set [6], 10 nM; in data set [2], 10 nM. The compound further gave an inhibition constant Ki in data set [1] of 0.016 nM.

With `CC[C@@H]1[C@H](O)[C@@H](O)[C@@H](Cc2ccccc2)N(Cc2cccc(C(=O)Nc3nc4ccccc4[nH]3)c2)C(=O)N1Cc1cccc(C(=O)Nc2nc3ccccc3[nH]2)c1`, in data set [1], the inhibitory constant (Ki) is 0.069 nM. The same compound displayed an IC90 in data set [2] of 26 nM.

`COc1ccc(C[C@@H]2[C@H](O)[C@@H](O)[C@@H](Cc3ccc(OC)cc3)N(Cc3cccc(C(=O)Nc4nc5ccccc5[nH]4)c3)C(=O)N2Cc2cccc(C(=O)Nc3nc4ccccc4[nH]3)c2)cc1`: in data set [1], the Ki stood at 0.026 nM. In data set [2], this compound showed an IC90 of 19 nM.

In data set [1], `CCCCCC[C@@H]1[C@H](O)[C@@H](O)[C@@H](CCCCCC)N(Cc2cccc(C(=O)Nc3nc4ccccc4[nH]3)c2)C(=O)N1Cc1cccc(C(=O)Nc2nc3ccccc3[nH]2)c1` had an inhibition constant Ki of 0.35 nM. Also, in data set [2], the 90% effect concentration (IC90) came out at 86 nM.

For `CC(C)C[C@@H]1[C@H](O)[C@@H](O)[C@@H](CC(C)C)N(Cc2cccc(C(=O)Nc3nc4ccccc4[nH]3)c2)C(=O)N1Cc1cccc(C(=O)Nc2nc3ccccc3[nH]2)c1`, the IC90 worked out at 12 nM in data set [4], 20 nM in data set [5], 26 nM in data set [6] and 59 nM in data set [2]. This compound had a Ki in data set [1] of 0.3 nM.

In data set [1], `O=C(Nc1nc2ccccc2[nH]1)c1cccc(CN2C(=O)N(Cc3cccc(C(=O)Nc4nc5ccccc5[nH]4)c3)[C@H](Cc3ccc(OCc4ccccc4)cc3)[C@H](O)[C@@H](O)[C@H]2Cc2ccc(OCc3ccccc3)cc2)c1` came in with a Ki of 3.7 nM. The IC90 in data set [2] was 125 nM.

For the compound `O=C(Nc1nc2ccccc2[nH]1)c1cccc(CN2C(=O)N(Cc3cccc(C(=O)Nc4nc5ccccc5[nH]4)c3)[C@H](Cc3ccc(O)cc3)[C@H](O)[C@@H](O)[C@H]2Cc2ccc(O)cc2)c1`, the inhibition constant Ki in data set [1] amounted to 0.035 nM. The IC90 in data set [2] came out at 35 nM.

In the case of `O=C(Nc1nc2ccccc2[nH]1)c1cccc(CN2C(=O)N(Cc3cccc(C(=O)Nc4nc5ccccc5[nH]4)c3)[C@H](Cc3ccccc3)[C@H](O)[C@@H](O)[C@H]2Cc2ccccc2)c1`, the solubility in data set [3] came out at 0.05 µg/mL (≈ 0.0606 µM). Further, the IC90 in data set [4] is 21 nM; in data set [5], 5 nM; in data set [6] it was 5 nM; in data set [2], 5 nM.
